The values below come from publication PMC9695821, “Synthesis and Evaluation of NF-κB Inhibitory Activity of Mollugin Derivatives” (Molecules, 2022).

As a reminder, the pIC50 is −log10 of the IC50, conventionally taken in molar units. A lower pIC50 goes with a large IC50. The melting point is the temperature of the solid-liquid transition. As usually defined, the IC50 is the concentration at which inhibition is half-maximal. A lower IC50 goes with greater potency.

The test system of data set [1] is NF-κB transcriptional activity. The experiment in a line: NF-κB luciferase reporter assay in HeLa cells. Format: cell-based. The conditions noted are these: Homo sapiens, NF-κB luciferase reporter, 24 h treatment, hypoxic conditions, mean, n = 3. As for the experimental part: A NF-κB-Luc plasmid for NF-κB luciferase reporter assay was obtained from Strategene (La Jolla, CA, USA). Transfections were performed as previously described. NF-κB-dependent luciferase activity was measured using the Dual-luciferase reporter assay system. Briefly, HeLa cells (1 × 10^5 cells/well) were seeded in a 96-well plate for 24 h. The cells were then transfected with plasmids for each well and then incubated for a transfection period of 24 h. […] Luciferase activity was determined in MicroLumat plus luminometer (EG&G Berthold, Bad Wildbad, Germany) by injecting 100 µL of assay buffer containing luciferin and measuring light emission for 10 s. Co-transfection with pRL-CMV (Promega, Madison, WI, USA), which expresses Renilla luciferase, was performed to enable normalization of data for transfection efficiency.

Data set [2] deals with xylene-induced ear edema. The experiment in a line: Xylene-induced ear edema test, initial screening (i.p.). Format: in vivo. Particulars: mice; for inhibition in vivo at 100 mg/kg: Mus musculus, ip, 0.5 h, n = 6, read-out: Inhibition Rate; for Edema Mean ± SD: 100 mg/kg, n = 6. As for the experimental part: In vivo inhibition test of xylene induced ear edema in mice was performed to evaluate its anti-inflammatory activity.
In the initial screening, mice (male) were randomly divided into experimental group, positive control drug ibuprofen and Mesalazine group, and blank group. All target compounds were dissolved in dimethyl sulfoxide, and corresponding drugs were intraperitoneally injected into experimental group, positive control group and blank group, respectively. Mice were treated with 100 mg/kg, 0.1 mL/20 g body weight, and control mice received only DMSO (0.1 mL/20 g body weight). After 30 min, 20 μL of xy-lene was evenly applied on both sides of the right ear of the mice. After 30 min of xy-lene was applied, the mice were sacrificed by cutting off their necks. Then the left and right ears of the mice were drilled with a hole punch with a diameter of 7 mm, respec-tively, to obtain two round ear pieces. The degree of swelling (right ear mass–left ear mass) was calculated for each sample, and the swelling inhibition rate of each drug was calculated using the following formula. The inhibition rate of swelling degree (%) = (mean ear swelling degree of mice in blank group […] mean ear swelling degree of mice in target compound group)/mean ear swelling degree of mice in blank group × 100%. The data were processed by GraphPadPrism 5 and expressed as mean data ± SEM. One-way ANOVA method was used for statistical analysis of relevant data. A value of p < 0.05 in the chart indicates significant and statistically significant data dif-ference.

Data set [3] can be described thus: MTT cytotoxicity / cell viability assay. The format is cell-based. The conditions noted are these: human; MTT assay, HeLa cells, 24 h treatment, normoxic conditions; mean, n = 3. On the procedure:
HeLa cells were inoculated and cultured in 96-well plates. After the cells adhered to the wall, the prepared target compounds with different concentrations were added to all plates for 24 h and then cultured in 5 mg/mL MTT solution for 4 h. The culture solution in the holes was sucked out, and DMSO reagent was added. After the crystallization was fully dissolved, the absorbance at 570 nm was measured by Multiskan GO.
(In general: Tetrazolium assays rely on reduction of a dye to a coloured formazan, in cell work by metabolically active cells.)

Data set [4] deals with xylene-induced ear edema. The experiment in a line: Xylene-induced ear edema test, deep screening (oral). Particulars: mice. The format is in vivo. As for the experimental part: In the deep screening, mice were divided into target compound group, positive control group (ibuprofen), and blank group (8 male mice in each group). Target com-pound and ibuprofen were dissolved in sodium carboxymethyl cellulose aqueous solu-tion (sodium carboxymethyl cellulose to water, mass ratio 1:1000); the blank group was sodium carboxymethyl cellulose aqueous solution (sodium carboxymethyl cellu-lose to water, mass ratio 1:1000). The anti-inflammatory activities of each compound in the target compound group, positive control group, and blank group were measured at 1, 2, 3, 4, 6, 9, 12 and 24 h after taking the drug. The experimental operation and calculation method are the same as the initial screening part.

The structures appear in SMILES notation. pIC50: −log10 of the molar value. Marks after values point to notes of the source that are not given here. Where only a bound is given, the exact number is not on record here.

In the case of `COC(=O)c1c2c(c3ccccc3c1OCC(=O)Nc1ccccc1C)OC(C)(C)C=C2` [Compound 4g, Methyl 2,2-dimethyl-6-(2-oxo-2-(o-tolylamino)ethoxy)-2H-Benzo [h] chromene-5-carboxylate], the melting point fell in the range of 122 to 124 °C. The compound further gave a negative-log IC50 (pIC50) in data set [1] below 4.00. In the data set on xylene-induced ear edema [2], the inhibition in vivo at 100 mg/kg came to 42.4% and the “Edema Mean ± SD” value is listed as 3.8000 ± 0.5066 mg. The IC50 at 24 h in data set [3] was above 100 µM.

Regarding `COC(=O)c1c2c(c3ccccc3c1OCCNc1ccccc1)OC(C)(C)C=C2` [Compound 8b, Methyl 2,2-dimethyl-6-(2-(phenylamino)ethoxy)-2H-benzo[h]chromene-5-carboxylate], the melting point was 135 to 137 °C. In data set [1], this compound gave a pIC50 below 4.00. In addition, in the data set on xylene-induced ear edema [2], the inhibition in vivo at 100 mg/kg came out at 76.5% and the “Edema Mean ± SD” value is 1.5500 ± 0.3594 mg. The compound also had an IC50 at 24 h in data set [3] above 100 µM.

Compound `COC(=O)c1c2c(c3ccccc3c1OCC(=O)Nc1ccc(Br)cc1)OC(C)(C)C=C2` [Compound 4c, Methyl 6-(2-((4-bromophenyl)amino)-2-oxoethoxy)-2,2-dimethyl-2H-Benzo [h] chromene-5-carboxylate] yielded a melting point of 125 to 127 °C. The same compound showed a pIC50 in data set [1] below 4.00. Further, in the data set on xylene-induced ear edema [2], the inhibition in vivo at 100 mg/kg amounted to 49.2% and the “Edema Mean ± SD” value was 3.3500 ± 1.0579 mg. The IC50 at 24 h in data set [3] was above 100 µM.

In turn, `COC(=O)c1c2c(c3ccccc3c1OCCNc1ccc(F)cc1)OC(C)(C)C=C2` [Compound 8c, Methyl6-(2-((4-fluorophenyl)amino)ethoxy)-2,2-dimethyl-2H-benzo [h] chromene-5-carboxylate] had a melting point of 128 to 130 °C. This compound gave a negative-log IC50 (pIC50) in data set [1] below 4.00. In addition, in the data set on xylene-induced ear edema [2], the inhibition in vivo at 100 mg/kg was 63.9% and the “Edema Mean ± SD” value came to 2.3833 ± 0.7104 mg. In data set [3], the half-maximal inhibitory concentration (IC50) at 24 h was above 100 µM.

For `COC(=O)c1c2c(c3ccccc3c1OCC(=O)Nc1cccc(C)c1)OC(C)(C)C=C2` [Compound 4h, Methyl 2,2-dimethyl-6-(2-oxo-2-(m-tolylamino)ethoxy)-2H-benzo [h] chromene-5-carboxylate], the melting point is 122 to 124 °C. Besides, the pIC50 in data set [1] was below 4.00. Further, in the data set on xylene-induced ear edema [2], the inhibition in vivo at 100 mg/kg came to 62.4% and the “Edema Mean ± SD” value turned out to be 2.4833 ± 1.5464 mg. In addition, the IC50 at 24 h in data set [3] was above 100 µM.

Consider `COC(=O)c1c2c(c3ccccc3c1OCC(=O)NC1CCN(Cc3ccccc3)CC1)OC(C)(C)C=C2` [Compound 6a, Methyl 6-(2-((1-benzylpiperidin-4-yl)amino)-2-oxoethoxy)-2,2-dimethyl-2H-benzo [h] chromene-5-carboxylate], for which the melting point lay within 115 to 117 °C. Besides, the negative logarithm of the IC50 (pIC50) in data set [1] is 4.31. In the data set on xylene-induced ear edema [2], the inhibition in vivo at 100 mg/kg was 56.6% and the “Edema Mean ± SD” value came out at 2.8667 ± 1.2645 mg. This compound registered a half-inhibitory concentration (IC50) at 24 h in data set [3] above 100 µM.

For `Nc1ccc(O)c(C(=O)O)c1` [mesalazine, reference compound], in the data set on xylene-induced ear edema [2], the inhibition in vivo at 100 mg/kg came to 51.3% and the “Edema Mean ± SD” value is 3.2167 ± 1.1067 mg.

In turn, `COC(=O)c1c2c(c3ccccc3c1OCC(=O)Nc1ccc(C)nc1)OC(C)(C)C=C2` [Compound 6i, Methyl 2,2-dimethyl-6-(2-((6-methylpyridin-3-yl)amino)-2-oxoethoxy)-2H-benzo [h] chromene-5-carboxylate] returned a melting point of 119 to 121 °C. The pIC50 in data set [1] was below 4.00. Moreover, in the data set on xylene-induced ear edema [2], the inhibition in vivo at 100 mg/kg was found to be 42.9% and the “Edema Mean ± SD” value turned out to be 3.7667 ± 1.1571 mg. In data set [3], this compound came in with an IC50 at 24 h above 100 µM.

As for `COC(=O)c1c2c(c3ccccc3c1OCC(=O)Nc1ccc3ccccc3n1)OC(C)(C)C=C2` [Compound 6k, Methyl 2,2-dimethyl-6-(2-oxo-2-(quinolin-2-ylamino)ethoxy)-2H-benzo [h] chromene-5-carboxylate], the melting point lay within 116 to 118 °C. In data set [1], this compound had a negative logarithm of the IC50 (pIC50) below 4.00. Also, in the data set on xylene-induced ear edema [2], the inhibition in vivo at 100 mg/kg amounted to 66.9% and the “Edema Mean ± SD” value is reported as 2.1833 ± 0.6414 mg. This compound also had an IC50 at 24 h in data set [3] above 100 µM.

Compound `COC(=O)c1c2c(c3ccccc3c1OCC(=O)Nc1cnccn1)OC(C)(C)C=C2` [Compound 6h, Methyl 2,2-dimethyl-6-(2-oxo-2-(pyrazin-2-ylamino)ethoxy)-2H-benzo [h] chromene-5-carboxylate] gave a melting point of 121 to 123 °C. Also, the pIC50 in data set [1] is 5.31. In the data set with xylene-induced ear edema [2], the inhibition in vivo at 100 mg/kg turned out to be 72.7% and the “Edema Mean ± SD” value is given as 1.8000 ± 0.6880 mg. Also, in data set [3], the IC50 at 24 h is above 100 µM.

Turning to `COC(=O)c1c2c(c3ccccc3c1OCC(=O)Nc1ccc(Cl)cc1)OC(C)(C)C=C2` [Compound 4b, Methyl 6-(2-((4-chlorophenyl)amino)-2-oxoethoxy)-2,2-dimethyl-2H-benzo [h] chromene-5-carboxylate], the melting point is 122 to 124 °C. Further, the pIC50 in data set [1] is below 4.00. In the data set on xylene-induced ear edema [2], the inhibition in vivo at 100 mg/kg worked out at 55.8% and the “Edema Mean ± SD” value is 2.9167 ± 0.8029 mg. Further, in data set [3], the half-maximal inhibitory concentration (IC50) at 24 h was above 100 µM.

Regarding `COC(=O)c1c2c(c3ccccc3c1OCC(=O)NCc1ccc(Cl)cc1)OC(C)(C)C=C2` [Compound 6c, Methyl 6-(2-((4-chlorobenzyl)amino)-2-oxoethoxy)-2,2-dimethyl-2H-benzo [h] chromene-5-carboxylate], the melting point was 130 to 132 °C. Besides, the pIC50 in data set [1] was 4.64. Besides, in the data set with xylene-induced ear edema [2], the inhibition in vivo at 100 mg/kg stood at 73.2% and the “Edema Mean ± SD” value turned out to be 1.7667 ± 0.3037 mg. Further, in data set [3], the IC50 at 24 h was above 100 µM.

Take `COC(=O)c1c2c(c3ccccc3c1OCC(=O)Nc1ccncc1C)OC(C)(C)C=C2` [Compound 6b, Methyl 2,2-dimethyl-6-(2-((3-methylpyridin-4-yl)amino)-2-oxoethoxy)-2H-benzo [h] chromene-5-carboxylate]: the melting point fell in the range of 123 to 125 °C. Moreover, the negative-log IC50 (pIC50) in data set [1] was 4.38. Moreover, in the data set with xylene-induced ear edema [2], the inhibition in vivo at 100 mg/kg was found to be 63.1% and the “Edema Mean ± SD” value came to 2.4333 ± 0.1795 mg. In addition, in data set [3], the 50% inhibitory concentration (IC50) at 24 h was above 100 µM.

As for `CC(C)Cc1ccc(C(C)C(=O)O)cc1` (centres unmarked) [ibuprofen, reference compound], in the data set with xylene-induced ear edema [2], the inhibition in vivo at 100 mg/kg worked out at 49.8%. In addition, the “Edema Mean ± SD” value with xylene-induced ear edema [2] is on record as 3.3167 ± 0.5550 mg. The Inhibition in the data set with xylene-induced ear edema [4] (100 mg/kg, time 1 h) is 22.98% ***; with xylene-induced ear edema [4] (100 mg/kg, time 2 h), 33.33% ***; in the data set on xylene-induced ear edema [4] (100 mg/kg, time 3 h), 44.95% ***; in the data set on xylene-induced ear edema [4] (100 mg/kg, time 4 h) it was 47.47%; with xylene-induced ear edema [4] (100 mg/kg, time 4 h, listed as Ibuprfen), 47.47% ***; in the data set with xylene-induced ear edema [4] (100 mg/kg, time 6 h (Table 5)), 44.44% ***. In addition, the Inhibition in the data set on xylene-induced ear edema [4] (100 mg/kg, time 9 h) stood at 34.60% ***; in the data set on xylene-induced ear edema [4] (100 mg/kg, time 12 h) it was 19.95% **; in the data set on xylene-induced ear edema [4] (100 mg/kg, time 24 h), 14.65% *; with xylene-induced ear edema [4] (dose series, 25 mg/kg, 6 h), 28.95% *; with xylene-induced ear edema [4] (dose series, 50 mg/kg, 6 h) it was 32.68% **; in the data set on xylene-induced ear edema [4] (dose series, 100 mg/kg, 6 h (Table 6)) it was 43.32% ***.

`COC(=O)c1c2c(c3ccccc3c1O)OC(C)(C)C=C2` [Mollugin] gave a negative logarithm of the IC50 (pIC50) in data set [1] below 4.00. In addition, in the data set with xylene-induced ear edema [2], the inhibition in vivo at 100 mg/kg was found to be 54% and the “Edema Mean ± SD” value is listed as 3.0333 ± 0.9655 mg. In data set [3], this compound gave an IC50 at 24 h above 100 µM.
